Columns and labels:
[1] = target: T1, GST-tagged KRAS G12D (2-169) (Homo sapiens, UniProt P01116, G12D); experiment: Nucleotide exchange assay (NEA), HTRF of SOS-mediated GTP-DY-647P1 binding; assay type: biochemical; settings: 5 nM GST-KRAS G12D, 20 nM SOScat, 150 nM GTP; compound 1 h at RT
T1 construct: GST-tagged KRAS^G12D (2-169, Reaction Biology, MSC-11-539); purchased Reaction Biology MSC-11-539 (KRAS G12D); MSC-11-502 (SOS1cat)
Method in brief: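 After 1 h RT preincubation of compound with KRAS, SOS1cat (20 nM final) and fluorescent GTP analog (150 nM) were added to 5 nM KRAS; HTRF (anti-GST Tb donor) followed at RT for up to 90 min. % inhibition relative to DMSO and no-SOS1 blank, 4-parameter curve fit.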

[2] = tested on: AGS (KRAS G12D) cells, phospho-ERK; experiment: pERK In Cell Western (ICW) assay (Method B); assay type: cell-based; settings: Homo sapiens, 3 hours
Procedure: pERK ICW is a high throughput screening assay to evaluate the cellular potency of mutant KRAS small molecule inhibitors. KRAS mutant cell line AGS (KRAS^G12D) were purchased from ATCC and maintained in DMEM and RPMI medium supplemented with 10% fetal bovine serum and Penicillin/Streptomycin.
Cells grown in exponential phase were trypsinized, resuspended in fresh media, and viable cells were counted using a cell counter with Trypan Blue (BioRad TC20). Cells were seeded into 384-well plate (Greiner 781091) at density of 5,000 cells/well for AGS and allowed to grow overnight in a 37° C. CO2 incubator. The next day, compounds were dispensed into wells with a ½ log, 10-point serial dilution and top concentration of 10 μM using Tecan D300e dispenser and incubated for 3 hours in a 37° C. CO2 incubator. Cells were then fixed with paraformaldehyde (Electron Microscopy Sciences, 15710, 4% final concentration) for 30 min, permeabilized with wash buffer (1×PBS+0.1% Triton X-100) for 30 min and blocked with Odyssey blocking buffer (Li—COR 927-70001) for 1 hour, all at room temperature (RT). Phospho-ERK antibody (CST 4370L) was diluted 1:500 in Odyssey blocking+0.2% Tween 20 and incubated with cells overnight at 4° C. The next day, plates were washed 5× with wash buffer, incubated with IRDye 800 CW, Goat anti-Rabbit secondary antibody (Li—COR 926-32211, 1:500) and DRAQ5 (CST 4084L, 1:5,000) diluted in Odyssey blocking+0.2% Tween 20 for 1 hour, washed 5×, and imaged on an Odyssey CLx imaging system.
For data analysis, signal intensities from 800 (phosphor-ERK) and 700 (DRAQ5) channels were extracted, and phospho-ERK signals were normalized to DRAQ5 signals for each well and percent of DMSO control values were computed. Data were then imported into Graphpad Prism to compute half-maximal inhibitory concentrations (IC50) using a 4-parameter variable slope model. Z-factor for each plate was computed from signals derived from wells treated with either DMSO or 5 μM of Trametinib. AGS pERK ICW (Method B) IC50 (uM) values of selected compounds are depicted in Table 2 with compounds having a value 0.001 uM to 0.01 uM as ++++; >0.01 uM to 0.1 uM as +++; >0.1 uM to 1 uM as ++; 1 uM to 10 uM as + and >10 uM as NA.

KRAS G12D/RAF1 = target: T2, KRAS G12D/RAF1 (Homo sapiens, UniProt P01116, G12D); experiment: Protein-protein interaction (PPI) HTRF assay KRAS G12D/RAF1; assay type: binding; settings: KRAS G12D/RAF1, GppNHp-loaded KRAS; 30 minutes pre-incubation
T2 construct: KRAS (1-169) proteins were expressed in E. coli at 18° C; His6-MBP (N, cleaved yes); made in house; host or cells: E. coli
Method in brief: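 IC50 values come from the 665/615 HTRF ratio, scaled between no-compound (0% inhibition) and untagged RAF1 (100%). GppNHp-exchanged, biotinylated RAS (1-169) solution at 16 nM met compound for 30 min at room temperature. Then 16 nM His-tagged RAF1 (52-131) donor solution was added and incubated 1 h.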

| Molecule | IC50 [1] [µM] | IC50 [2] [µM] | IC50 (KRAS G12D/RAF1) [µM] |
| --- | --- | --- | --- |
| Oc1ccc(Cl)c2c1C1(CC2)Cc2nc(OC[C@@]34CCCN3C[C@H](F)C4)nc(N3CCCCCC3)c2CO1 (mixture of isomers) [Compound 9, 4-(azepan-1-yl)-7′-chloro-2-[[rac-(2R,8S)-2-fluoro-1,2,3,5,6,7-hexahydropyrrolizin-8-yl]methoxy]spiro[5,8-dihydropyrano[4,3-d]pyrimidine-7,3′-indane]-4′-ol] | 1 to 20 | 1 to 10 | – |
| CN(C)C(=O)c1cc2n(n1)CCCN(c1nc(OC[C@@]34CCCN3C[C@H](F)C4)nc3c1COC1(CCc4ccc(OC(F)F)cc41)C3)C2 (mixture of isomers) [Compound 41, 5-[6′-(difluoromethoxy)-2-[[rac-(2R,8S)-2-fluoro-1,2,3,5,6,7-hexahydropyrrolizin-8-yl]methoxy]spiro[5,8-dihydropyrano[4,3-d]pyrimidine-7,1′-indane]-4-yl]-N,N-dimethyl-4,6,7,8-tetrahydropyrazolo[1,5-a][1,4]diazepine-2-carboxamide] | 1 to 20 | > 10 | – |
| CN(C)C(=O)c1cc2n(n1)CCCN(c1nc(OC[C@@]34CCCN3C[C@H](F)C4)nc3c1COC1(CCc4c(OC(F)F)cccc41)C3)C2 (mixture of isomers) [Compound 48, 5-[4′-(difluoromethoxy)-2-[[rac-(2R,8S)-2-fluoro-1,2,3,5,6,7-hexahydropyrrolizin-8-yl]methoxy]spiro[5,8-dihydropyrano[4,3-d]pyrimidine-7,1′-indane]-4-yl]-N,N-dimethyl-4,6,7,8-tetrahydropyrazolo[1,5-a][1,4]diazepine-2-carboxamide] | 1 to 20 | > 10 | – |
| CN(C)C(=O)c1cc2n(n1)CCCN(c1nc(OC[C@@]34CCCN3C[C@H](F)C4)nc3c1CN(C)[C@]1(CCCc4ccc(O)cc41)C3)C2 [Compound 39B, 5-[(7R)-2-[[(2R,8S)-2-fluoro-1,2,3,5,6,7-hexahydropyrrolizin-8-yl]methoxy]-7′-hydroxy-6-methyl-spiro[5,8-dihydropyrido[4,3-d]pyrimidine-7,1′-tetralin]-4-yl]-N,N-dimethyl-4,6,7,8-tetrahydropyrazolo[1,5-a][1,4]diazepine-2-carboxamide] | 1 to 20 | > 10 | – |
| CN1Cc2c(nc(OC[C@@]34CCCN3C[C@H](F)C4)nc2N2CCC[C@]3(C2)NC(=O)NC3=O)C[C@]12CCc1cccc(F)c12 [Compound 66, (5R)-9-[(7S)-7′-fluoro-2-[[(2R,8S)-2-fluoro-1,2,3,5,6,7-hexahydropyrrolizin-8-yl]methoxy]-6-methyl-spiro[5,8-dihydropyrido[4,3-d]pyrimidine-7,1′-indane]-4-yl]-1,3,9-triazaspiro[4.5]decane-2,4-dione] | 0.01 to 0.1 | > 10 | – |
| CN1Cc2c(nc(OC[C@@]34CCCN3C[C@H](F)C4)nc2N2CCC[C@]3(C2)NC(=O)NC3=O)C[C@]12CCc1c(F)ccc(F)c12 [Compound 67, (5R)-9-[(7S)-4′,7′-difluoro-2-[[(2R,8S)-2-fluoro-1,2,3,5,6,7-hexahydropyrrolizin-8-yl]methoxy]-6-methyl-spiro[5,8-dihydropyrido[4,3-d]pyrimidine-7,1′-indane]-4-yl]-1,3,9-triazaspiro[4.5]decane-2,4-dione] | 0.01 to 0.1 | > 10 | – |
| CN1Cc2c(nc(OC[C@@]34CCCN3C[C@H](F)C4)nc2N2CCn3cncc3C2)C[C@]12CCCc1ccccc12 [Compound 91, (7S)-4-(6,8-dihydro-5H-imidazo[1,5-a]pyrazin-7-yl)-2-[[(2R,8S)-2-fluoro-1,2,3,5,6,7-hexahydropyrrolizin-8-yl]methoxy]-6-methyl-spiro[5,8-dihydropyrido[4,3-d]pyrimidine-7,1′-tetralin]] | 1 to 20 | – | > 100 |
| CN1Cc2c(nc(OC[C@@]34CCCN3C[C@H](F)C4)nc2N2CCCn3nc(-c4cccc(O)n4)cc3C2)C[C@]12CCCc1ccccc12 [Compound 92, 6-[5-[(7S)-2-[[(2R,8S)-2-fluoro-1,2,3,5,6,7-hexahydropyrrolizin-8-yl]methoxy]-6-methyl-spiro[5,8-dihydropyrido[4,3-d]pyrimidine-7,1′-tetralin]-4-yl]-4,6,7,8-tetrahydropyrazolo[1,5-a][1,4]diazepin-2-yl]pyridin-2-ol] | 0.1 to 1 | – | > 100 |
| CN1Cc2c(nc(OC[C@@]34CCCN3C[C@H](F)C4)nc2N2CCCn3nc(-c4ccccn4)c(Cl)c3C2)C[C@]12CCCc1ccccc12 [Compound 93, (7S)-4-[3-chloro-2-(2-pyridyl)-4,6,7,8-tetrahydropyrazolo[1,5-a][1,4]diazepin-5-yl]-2-[[(2R,8S)-2-fluoro-1,2,3,5,6,7-hexahydropyrrolizin-8-yl]methoxy]-6-methyl-spiro[5,8-dihydropyrido[4,3-d]pyrimidine-7,1′-tetralin]] | < 0.01 | – | 10 to 100 |
| C[C@@H]1Cn2cncc2CN1c1nc(OC[C@@]23CCCN2C[C@H](F)C3)nc2c1CN(C)[C@@]1(CCCc3ccccc31)C2 [Compound 94, (7S)-2-[[(2R,8S)-2-fluoro-1,2,3,5,6,7-hexahydropyrrolizin-8-yl]methoxy]-6-methyl-4-[(6R)-6-methyl-6,8-dihydro-5H-imidazo[1,5-a]pyrazin-7-yl]spiro[5,8-dihydropyrido[4,3-d]pyrimidine-7,1′-tetralin]] | 1 to 20 | – | > 100 |
| CN(C)C(=O)c1nn2c(c1Cl)CN(c1nc(OCC3(CN4CCOCC4)CC3)nc3c1CN(C)[C@@]1(CCCc4ccccc41)C3)CCC2 [Compound 95, 3-chloro-N,N-dimethyl-5-[(7S)-6-methyl-2-[[1-(morpholinomethyl)cyclopropyl]methoxy]spiro[5,8-dihydropyrido[4,3-d]pyrimidine-7,1′-tetralin]-4-yl]-4,6,7,8-tetrahydropyrazolo[1,5-a][1,4]diazepine-2-carboxamide] | < 0.01 | – | > 100 |
| CN1Cc2c(nc(OC[C@@]34CCCN3C[C@H](F)C4)nc2N2CCCn3nc(CC#N)c(Cl)c3C2)C[C@]12CCCc1ccccc12 [Compound 98, 2-[3-chloro-5-[(7S)-2-[[(2R,8S)-2-fluoro-1,2,3,5,6,7-hexahydropyrrolizin-8-yl]methoxy]-6-methyl-spiro[5,8-dihydropyrido[4,3-d]pyrimidine-7,1′-tetralin]-4-yl]-4,6,7,8-tetrahydropyrazolo[1,5-a][1,4]diazepin-2-yl]acetonitrile] | < 0.01 | – | > 100 |
| CCN1Cc2c(nc(OC[C@@]34CCCN3C[C@H](F)C4)nc2N2CCCn3nc(C(=O)N(C)C)c(Cl)c3C2)C[C@]12CCCc1ccccc12 [Compound 100, 3-chloro-5-[(7S)-6-ethyl-2-[[(2R,8S)-2-fluoro-1,2,3,5,6,7-hexahydropyrrolizin-8-yl]methoxy]spiro[5,8-dihydropyrido[4,3-d]pyrimidine-7,1′-tetralin]-4-yl]-N,N-dimethyl-4,6,7,8-tetrahydropyrazolo[1,5-a][1,4]diazepine-2-carboxamide] | 0.01 to 0.1 | – | > 100 |
| [5-[(7S)-4′-chloro-2-[[(2R,8S)-2-fluoro-1,2,3,5,6,7-hexahydropyrrolizin-8-yl]methoxy]spiro[5,8-dihydropyrano[4,3-d]pyrimidine-7,1′-indane]-4-yl]-4,6,7,8-tetrahydropyrazolo[1,5-a][1,4]diazepin-2-yl]-pyrrolidin-1-yl-methanone [Compound 34] | < 0.01 | – | > 100 |

Reference: patent publication US11912723B2, “KRAS modulators and uses thereof” (Quanta Therapeutics, Inc., priority 2022, dated 2024)
